This is an account of results in PMC5564600 (Oncotarget, 2017).

Molecules are shown by their SMILES.

Holding throughout (experiment): biochemical
What all share (type): binding

The target in assay [1] is T1, panel of 442 kinases (Homo sapiens, UniProt P28482).
T1 construct: purchased Ambit Biosciences (scanMAXX KINOMEscan)
The settings on record: ERK2; for remaining activity at 1 µM: read-out: % of control at 1 µM.

Assay [2] concerns the target T2, panel of 442 kinases (Homo sapiens, UniProt Q6XUX3).
T2 construct: purchased Ambit Biosciences (scanMAXX KINOMEscan)
T2 sequence (Q6XUX3 1-929): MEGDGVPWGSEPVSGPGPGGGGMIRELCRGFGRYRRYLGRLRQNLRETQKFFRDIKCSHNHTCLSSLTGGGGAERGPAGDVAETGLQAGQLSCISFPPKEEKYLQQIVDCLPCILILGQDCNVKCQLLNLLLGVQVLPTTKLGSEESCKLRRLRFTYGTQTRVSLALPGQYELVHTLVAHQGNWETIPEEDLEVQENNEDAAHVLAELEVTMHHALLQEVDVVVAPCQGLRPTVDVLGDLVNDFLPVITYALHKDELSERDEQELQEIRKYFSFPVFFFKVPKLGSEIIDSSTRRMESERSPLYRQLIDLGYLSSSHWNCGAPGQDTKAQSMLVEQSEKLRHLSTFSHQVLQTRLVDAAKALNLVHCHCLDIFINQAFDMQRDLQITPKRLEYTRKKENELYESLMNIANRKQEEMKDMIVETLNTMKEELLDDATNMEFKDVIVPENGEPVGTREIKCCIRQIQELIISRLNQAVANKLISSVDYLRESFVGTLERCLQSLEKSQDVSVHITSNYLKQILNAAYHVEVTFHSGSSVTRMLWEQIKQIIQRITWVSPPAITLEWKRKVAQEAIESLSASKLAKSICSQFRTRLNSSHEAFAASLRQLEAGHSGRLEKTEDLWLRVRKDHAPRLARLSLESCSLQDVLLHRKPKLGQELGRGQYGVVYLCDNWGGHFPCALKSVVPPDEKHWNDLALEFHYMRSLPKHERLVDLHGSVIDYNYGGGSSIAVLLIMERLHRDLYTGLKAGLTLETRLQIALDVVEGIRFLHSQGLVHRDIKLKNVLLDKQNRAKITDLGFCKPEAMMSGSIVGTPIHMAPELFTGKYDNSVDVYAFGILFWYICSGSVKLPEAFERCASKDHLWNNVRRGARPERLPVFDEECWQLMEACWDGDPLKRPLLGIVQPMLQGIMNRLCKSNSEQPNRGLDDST
The settings on record: kinase RIPK5; for remaining activity at 1 µM: read-out: RIPK5 (% of control at 1 µM).

The target of assay [3] is T3, panel of 442 kinases (Homo sapiens, UniProt Q9UF33).
T3 construct: purchased Ambit Biosciences (scanMAXX KINOMEscan)
T3 sequence (Q9UF33 23-1036): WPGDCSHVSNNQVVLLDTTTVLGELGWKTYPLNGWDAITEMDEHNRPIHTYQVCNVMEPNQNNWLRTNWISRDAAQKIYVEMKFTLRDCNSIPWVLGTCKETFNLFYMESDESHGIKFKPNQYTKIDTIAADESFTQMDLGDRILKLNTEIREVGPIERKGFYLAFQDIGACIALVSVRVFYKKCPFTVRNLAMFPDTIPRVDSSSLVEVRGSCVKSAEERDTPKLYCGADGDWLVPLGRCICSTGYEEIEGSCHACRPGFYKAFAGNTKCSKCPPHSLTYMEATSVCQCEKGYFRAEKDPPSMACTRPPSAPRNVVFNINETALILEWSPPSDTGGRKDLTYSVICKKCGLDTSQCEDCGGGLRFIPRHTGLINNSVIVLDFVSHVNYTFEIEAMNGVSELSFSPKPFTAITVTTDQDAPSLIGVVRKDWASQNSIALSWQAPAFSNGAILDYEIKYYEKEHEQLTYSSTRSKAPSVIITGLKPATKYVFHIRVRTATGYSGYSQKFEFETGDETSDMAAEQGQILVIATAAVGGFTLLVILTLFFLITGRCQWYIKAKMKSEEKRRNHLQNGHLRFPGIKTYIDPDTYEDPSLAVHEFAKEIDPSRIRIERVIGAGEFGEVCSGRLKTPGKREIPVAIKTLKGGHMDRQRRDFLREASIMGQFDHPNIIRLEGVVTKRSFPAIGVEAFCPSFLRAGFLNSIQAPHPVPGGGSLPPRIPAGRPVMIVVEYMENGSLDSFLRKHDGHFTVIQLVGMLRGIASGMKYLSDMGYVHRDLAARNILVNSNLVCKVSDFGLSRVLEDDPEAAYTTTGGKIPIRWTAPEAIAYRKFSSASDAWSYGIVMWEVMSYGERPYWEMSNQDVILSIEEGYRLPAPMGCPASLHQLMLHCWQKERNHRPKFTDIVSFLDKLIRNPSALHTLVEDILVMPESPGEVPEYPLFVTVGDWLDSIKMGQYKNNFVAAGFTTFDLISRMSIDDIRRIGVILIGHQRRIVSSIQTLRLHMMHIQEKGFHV
The settings on record: EPHA6; for remaining activity at 1 µM: read-out: % of control at 1 µM.

Assay [4] deals with T4, panel of 442 kinases (Homo sapiens, UniProt Q8TDX7).
T4 construct: purchased Ambit Biosciences (scanMAXX KINOMEscan)
The following applies: kinase NEK7; for remaining activity at 1 µM: read-out: % of control at 1 µM.

Assay [5] addresses T5, panel of 442 kinases (Homo sapiens, UniProt Q9Y2U5).
T5 construct: purchased Ambit Biosciences (scanMAXX KINOMEscan)
T5 sequence (Q9Y2U5 1-619): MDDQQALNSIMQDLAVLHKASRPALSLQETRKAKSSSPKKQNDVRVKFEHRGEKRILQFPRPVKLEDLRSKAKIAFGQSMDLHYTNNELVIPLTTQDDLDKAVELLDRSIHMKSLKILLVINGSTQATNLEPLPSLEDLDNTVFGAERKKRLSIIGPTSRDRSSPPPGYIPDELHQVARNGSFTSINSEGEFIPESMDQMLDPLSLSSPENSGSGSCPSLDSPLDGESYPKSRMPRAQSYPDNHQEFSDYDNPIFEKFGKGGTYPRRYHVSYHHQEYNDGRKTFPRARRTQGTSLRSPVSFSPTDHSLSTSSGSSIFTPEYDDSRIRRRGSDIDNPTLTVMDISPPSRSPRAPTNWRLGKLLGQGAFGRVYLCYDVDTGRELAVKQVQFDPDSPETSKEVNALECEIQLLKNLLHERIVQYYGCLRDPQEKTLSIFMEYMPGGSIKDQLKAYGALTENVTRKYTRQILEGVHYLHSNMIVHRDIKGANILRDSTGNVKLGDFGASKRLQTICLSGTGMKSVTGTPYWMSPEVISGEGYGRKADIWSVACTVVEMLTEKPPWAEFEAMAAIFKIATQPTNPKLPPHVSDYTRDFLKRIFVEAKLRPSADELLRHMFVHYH
The following applies: kinase MAP3K2; for remaining activity at 1 µM: read-out: % of control at 1 µM.

[6] abbreviates: 10 µM, read-out: % of control at 10 µM.

T4 sequence (Q8TDX7 whole entry): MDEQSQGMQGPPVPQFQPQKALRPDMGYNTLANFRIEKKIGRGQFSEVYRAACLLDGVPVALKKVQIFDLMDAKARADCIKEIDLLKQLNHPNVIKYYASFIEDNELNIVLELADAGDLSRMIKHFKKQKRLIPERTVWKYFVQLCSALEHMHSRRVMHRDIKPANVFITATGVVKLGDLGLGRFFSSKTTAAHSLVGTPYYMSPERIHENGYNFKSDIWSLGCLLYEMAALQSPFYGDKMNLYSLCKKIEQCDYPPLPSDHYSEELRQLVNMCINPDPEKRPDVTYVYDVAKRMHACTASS
T1 sequence (P28482 whole entry): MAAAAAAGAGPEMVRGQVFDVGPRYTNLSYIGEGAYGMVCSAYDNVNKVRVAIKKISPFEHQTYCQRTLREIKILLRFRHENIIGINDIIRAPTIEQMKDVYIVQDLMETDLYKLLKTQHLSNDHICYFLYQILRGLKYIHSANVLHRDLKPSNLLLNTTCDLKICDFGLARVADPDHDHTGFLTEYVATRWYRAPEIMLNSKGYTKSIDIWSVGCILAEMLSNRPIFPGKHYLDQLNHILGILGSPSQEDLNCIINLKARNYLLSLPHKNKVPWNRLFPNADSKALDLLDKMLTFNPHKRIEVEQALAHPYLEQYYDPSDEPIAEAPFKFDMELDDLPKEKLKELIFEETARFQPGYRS

As to `Nc1cc(C(F)(F)F)c(-c2cc(N3CCOCC3)nc(N3CCOCC3)n2)cn1` [Buparlisib], the remaining activity at 1 µM at panel of 442 kinases [1] is 100%; on panel of 442 kinases [2] it was 100%; on panel of 442 kinases [3] it was 93%; on panel of 442 kinases [4], 100%; on panel of 442 kinases [5], 100%. In addition, the remaining activity at 10 µM at panel of 442 kinases [1] (setting [6]) came out at 78%; at panel of 442 kinases [2] (10 µM, read-out: RIPK5 (% of control at 10 µM)), 89%; on panel of 442 kinases [3] (setting [6]), 100%; on panel of 442 kinases [4] (setting [6]), 94%; on panel of 442 kinases [5] (setting [6]), 100%.

In the case of `Cn1c(=O)n(-c2ccc(C(C)(C)C#N)cc2)c2c3cc(-c4cnc5ccccc5c4)ccc3ncc21` [Dactolisib, 2-methyl-2-[4-(3-methyl-2-oxo-8-quinolin-3-yl-2,3-dihydroimidazo[4,5-c]quinolin-1-yl)-phenyl] propionitrile], the remaining activity at 1 µM at panel of 442 kinases [1] amounted to 88%; on panel of 442 kinases [2] it was 80%; on panel of 442 kinases [3] it was 94%; on panel of 442 kinases [4], 90%; at panel of 442 kinases [5], 72%.

For `COc1ncc(-c2ccc3nccc(-c4ccnnc4)c3c2)cc1NS(=O)(=O)c1ccc(F)cc1F` [Omipalisib], the remaining activity at 1 µM at panel of 442 kinases [1], on panel of 442 kinases [2], at panel of 442 kinases [3], at panel of 442 kinases [4] and at panel of 442 kinases [5] was 100% each time.

Regarding `FC(F)c1nc2ccccc2n1-c1nc(N2CCOCC2)nc(N2CCOCC2)n1` [ZSTK474, 2-(difluoromethyl)-1-[4,6-di(4-morpholinyl)-1,3,5-triazin-2-yl]-1H-benzimidazole], the remaining activity at 1 µM stood at 100% on panel of 442 kinases [1]; 92% at panel of 442 kinases [2]; 88% at panel of 442 kinases [3]; 68% on panel of 442 kinases [4]; 74% at panel of 442 kinases [5].
